melting point: 173 to 175 °C
Compound: COC(=O)c1cc(OC)c(OC(=O)c2cccnc2)c(OC)c1

— US20220009892A1, “SUBSTITUTED PYRIDINE CARBOXYLIC ACIDS, THEIR PREPARATION METHOD AND COMPOSITIONS THEREOF” (INCILIA THERAPEUTICS PRIVATE LIMITED, priority 2018, published 2022)
